Experimental data published in patent US12233032B2, “Compositions for management of polycystic ovary syndrome” (Sami-Sabinsa Group Limited, priority 2021, dated 2025).
Marks after values point to notes of the source that are not given here.

Key:
Type in all cases: in vivo
[1] = tested on: PCOS induced by letrozole in female Wistar rats; test: Body weight in letrozole-induced PCOS
Experimental: (§1) Animals and Experimental design: Animals were housed under standard air-conditioned laboratory conditions. The temperature was maintained at maximum: 24° C. and a minimum of 23° C. and Relative humidity at maximum: 63% and a minimum of 48% with 12 h light and 12 h dark cycle. The maximum and minimum temperature and relative humidity in the experimental room were recorded once daily. Female virgin Wistar rats (150-200 g) was checked daily for 4-day ovarian cycle using vaginal cytology. PCOS was induced by oral administration of aromatase inhibitor, letrozole (1 mg/kg) dissolved in 0.5% CMC (2 mg/kg) for 21 days. During the experiment, the estrous cycle was monitored by the analyses of relative proportion of leukocytes, epithelial and cornified cells in vaginal smears. Following letrozole administration, test samples were administered to animals from day 22 to day 36. After treatment protocol, animal from all groups (Table 1) were fasted overnight and anesthetized with diethylether/halothane. The blood was collected by retino-orbital puncture, then serum was separated by centrifugation followed by estimation of hormones and other biochemical parameters using commercially available ELISA kits. The serum hormone levels, body weight and ovary weigh of the animals were assessed to ascertain the effective dose.

[2] = tested on: PCOS induced by letrozole in female Wistar rats; test: Serum hormonal levels (17-β estradiol, progesterone, FSH, LH) in letrozole-induced PCOS; conditions: day 22 to day 36
Experimental: as §1

[3] = tested on: PCOS induced by letrozole in female Wistar rats; test: Thyroid function analysis (serum T3, T4, TSH) in PCOS
Experimental: Animals and Experimental design: Animals were housed under standard air-conditioned laboratory conditions. The temperature was maintained at maximum: 24° C. and a minimum of 23° C. and Relative humidity at maximum: 63% and a minimum of 48% with 12 h light and 12 h dark cycle. The maximum and minimum temperature and relative humidity in the experimental room were recorded once daily. Female virgin Wistar rats (150-200 g) was checked daily for 4-day ovarian cycle using vaginal cytology. PCOS was induced by oral administration of aromatase inhibitor, letrozole (1 mg/kg) dissolved in 0.5% CMC (2 mg/kg) for 21 days. During the experiment, the estrous cycle was monitored by the analyses of relative proportion of leukocytes, epithelial and cornified cells in vaginal smears.
Following letrozole administration, test samples were administered to animals from day 22 to day 36. After treatment protocol, animal from all groups (Table 1) were fasted overnight and anesthetized with diethylether/halothane. The blood was collected by retino-orbital puncture, then serum was separated by centrifugation followed by estimation of hormones and other biochemical parameters using commercially available ELISA kits.
Based on the above results, the following groups were taken for further analysis BDMC 25 mg/kg p.o. • BDMC 50 mg/kg p.o. • AC3 100 mg/kg p.o. • AC3 200 mg/kg p.o.
The following molecular targets were assessed: • 1. Thyroid Function analysis • 2. Effect on androgen profile • 3. Effect on serum adiponectin levels • 4. Insulin resistance • 5. Effect on Serum Paraoxonase 1 Activity • 6. Effect of gut microbiota • 7. Oxidative stress and inflammatory markers Thyroid Function Analysis

[4] = tested on: PCOS induced by letrozole in female Wistar rats; test: Ovarian weight in letrozole-induced PCOS; conditions: day 22 to day 36
Experimental: as §1

Molecule `O=C(/C=C/c1ccc(O)cc1)CC(=O)/C=C/c1ccc(O)cc1` [BDMC, bisdemethoxycurcumin] has an Average body weight ([1]; 3.12 mg/kg from day 22, Day 28 (PCOS + Treatment)) of 202 ± 4.15 g, an Average body weight ([1]; 3.12 mg/kg from day 22, Day 36 (PCOS + Treatment)) of 200 ± 6.36 g and an Average body weight ([1]; 3.12 mg/kg group, Day 1 (PCOS induction, before treatment)) of 158 ± 6.16 g. For the same molecule, the Average body weight ([1]; 3.12 mg/kg group, Day 7 (PCOS induction, before treatment)) was 175 ± 5.27 g, the Average body weight ([1]; 3.12 mg/kg group, Day 14 (PCOS induction, before treatment)) was 194 ± 5.77 g and the Average body weight ([1]; 3.12 mg/kg group, Day 21 (PCOS induction, before treatment)) was 210 ± 7.58 g. The Average body weight ([1]; 6.25 mg/kg from day 22, Day 28 (PCOS + Treatment)) was 201 ± 6.88 g, the Average body weight ([1]; 6.25 mg/kg from day 22, Day 36 (PCOS + Treatment)) was 198 ± 6.45 g and the Average body weight ([1]; 6.25 mg/kg group, Day 1 (PCOS induction, before treatment)) was 157 ± 8.15 g. It also gave an Average body weight ([1]; 6.25 mg/kg group, Day 7 (PCOS induction, before treatment)) of 175.3 ± 4.5 g, an Average body weight ([1]; 6.25 mg/kg group, Day 14 (PCOS induction, before treatment)) of 195.5 ± 6.6 g and an Average body weight ([1]; 6.25 mg/kg group, Day 21 (PCOS induction, before treatment)) of 215 ± 5.78 g. It also gave an Average body weight ([1]; 12.5 mg/kg from day 22, Day 28 (PCOS + Treatment)) of 200 ± 6.57 g, an Average body weight ([1]; 12.5 mg/kg from day 22, Day 36 (PCOS + Treatment)) of 196 ± 5.26 g and an Average body weight ([1]; 12.5 mg/kg group, Day 1 (PCOS induction, before treatment)) of 158 ± 7.88 g. For the same molecule, the Average body weight ([1]; 12.5 mg/kg group, Day 7 (PCOS induction, before treatment)) was 174 ± 2.83 g, the Average body weight ([1]; 12.5 mg/kg group, Day 14 (PCOS induction, before treatment)) was 202.5 ± 8.12^ g and the Average body weight ([1]; 12.5 mg/kg group, Day 21 (PCOS induction, before treatment)) was 212 ± 6.36 g. The Average body weight ([1]; 25 mg/kg from day 22, Day 28 (PCOS + Treatment)) was 201 ± 5.54 g, the Average body weight ([1]; 25 mg/kg from day 22, Day 36 (PCOS + Treatment)) was 191 ± 5.84 g and the Average body weight ([1]; 25 mg/kg group, Day 1 (PCOS induction, before treatment)) was 157.5 ± 8.16^ g. The Average body weight ([1]; 25 mg/kg group, Day 7 (PCOS induction, before treatment)) was 172 ± 6.46 g, the Average body weight ([1]; 25 mg/kg group, Day 14 (PCOS induction, before treatment)) was 190.5 ± 4.44^ g and the Average body weight ([1]; 25 mg/kg group, Day 21 (PCOS induction, before treatment)) was 210 ± 5.12 g. The Average body weight ([1]; 50 mg/kg from day 22, Day 28 (PCOS + Treatment)) was 199 ± 8.15 g, the Average body weight ([1]; 50 mg/kg from day 22, Day 36 (PCOS + Treatment)) was 192 ± 6.36 g and the Average body weight ([1]; 50 mg/kg group, Day 1 (PCOS induction, before treatment)) was 157 ± 6.13 g. It also gave an Average body weight ([1]; 50 mg/kg group, Day 7 (PCOS induction, before treatment)) of 168 ± 5.47 g, an Average body weight ([1]; 50 mg/kg group, Day 14 (PCOS induction, before treatment)) of 190 ± 10.42 g and an Average body weight ([1]; 50 mg/kg group, Day 21 (PCOS induction, before treatment)) of 211 ± 7.58 g. The “Serum hormonal levels 17-β estradiol” value ([2]; 3.12 mg/kg) was 16.89 ± 3.01 pg/mL, the “Serum hormonal levels FSH” value ([2]; 3.12 mg/kg) was 10.54 ± 1.44 mIU/mL and the “Serum hormonal levels LH” value ([2]; 3.12 mg/kg) was 26.33 ± 3.02 mIU/mL. The “Serum hormonal levels Progesterone” value ([2]; 3.12 mg/kg) was 18.67 ± 1.03 ng/mL, the “Serum hormonal levels 17-β estradiol” value ([2]; 6.25 mg/kg) was 18.22 ± 2.44 pg/mL and the “Serum hormonal levels FSH” value ([2]; 6.25 mg/kg) was 10.98 ± 1.52 mIU/mL. For the same molecule, the “Serum hormonal levels LH” value ([2]; 6.25 mg/kg) was 27.32 ± 2.30 mIU/mL, the “Serum hormonal levels Progesterone” value ([2]; 6.25 mg/kg) was 20.56 ± 1.09 ng/mL and the “Serum hormonal levels 17-β estradiol” value ([2]; 12.5 mg/kg) was 18.89 ± 1.65 pg/mL. The “Serum hormonal levels FSH” value ([2]; 12.5 mg/kg) was 12.58 ± 1.08 mIU/mL, the “Serum hormonal levels LH” value ([2]; 12.5 mg/kg) was 24.36 ± 2.11 mIU/mL and the “Serum hormonal levels Progesterone” value ([2]; 12.5 mg/kg) was 23.50 ± 2.21 ng/mL. For the same molecule, the “Serum hormonal levels 17-β estradiol” value ([2]; 25 mg/kg) was 22.50 ± 1.67 pg/mL, the “Serum hormonal levels FSH” value ([2]; 25 mg/kg) was 13.28 ± 1.34 mIU/mL and the “Serum hormonal levels LH” value ([2]; 25 mg/kg) was 21.54 ± 1.26 mIU/mL. The “Serum hormonal levels Progesterone” value ([2]; 25 mg/kg) was 26.95 ± 1.53 ng/mL, the “Serum hormonal levels 17-β estradiol” value ([2]; 50 mg/kg) was 21.26 ± 2.32 pg/mL and the “Serum hormonal levels FSH” value ([2]; 50 mg/kg) was 13.07 ± 1.36 mIU/mL. For the same molecule, the “Serum hormonal levels LH” value ([2]; 50 mg/kg) was 22.78 ± 1.76 mIU/mL, the “Serum hormonal levels Progesterone” value ([2]; 50 mg/kg) was 26.28 ± 1.22 ng/mL and the “Serum hormonal levels T3” value ([3]; 25 mg/kg p.o.) was 3.3 ± 0.18 μIU/ml. The “Serum hormonal levels T4” value ([3]; 25 mg/kg p.o.) was 11.78 ± 0.39 μIU/ml, the “Serum hormonal levels TSH” value ([3]; 25 mg/kg p.o.) was 5.28** nmol/L and the “Serum hormonal levels T3” value ([3]; 50 mg/kg p.o.) was 3.05 ± 0.17 μIU/ml. The “Serum hormonal levels T4” value ([3]; 50 mg/kg p.o.) was 10.45 ± 0.27 μIU/ml, the “Serum hormonal levels TSH” value ([3]; 50 mg/kg p.o.) was 7.12** nmol/L and the Ovarian weight ([4]; 3.12 mg/kg) was 63.88 ± 2.19 mg. For the same molecule, the Ovarian weight ([4]; 6.25 mg/kg) was 59.64 ± 2.32 mg, the Ovarian weight ([4]; 12.5 mg/kg) was 54.36 ± 2.80 mg and the Ovarian weight ([4]; 25 mg/kg) was 47.88 ± 2.76 mg. For the same molecule, the Ovarian weight ([4]; 50 mg/kg) was 48.54 ± 2.42 mg.
